Assay results: article PMC10215804, “Exploring Alternative Pathways to Target Bacterial Type II Topoisomerases Using NBTI Antibacterials: Beyond Halogen-Bonding Interactions” (Antibiotics, 2023)
Where two headings read alike, the source gives them in different places.

How the values were obtained:
E. coli topoIV = target: T1, E. coli topoIV (Escherichia coli, UniProt P0AFI2); test: topoIV relaxation inhibition assay (high-throughput plate assay); type: biochemical
T1 construct: purchased Inspiralis (Norwich, UK)
Protocol: (§1) To determine the IC50 values of the compounds for S. aureus and E. coli, a DNA gyrase supercoiling high-throughput plate assay and a topoIV relaxation high-throughput plate assay were performed. Assay kits and black streptavidin-coated 96-well microtiter plates are available from Inspiralis (Norwich, UK). For pre-screening, an inhibitor concentration of 100 μM was used. […] A nonlinear regression-based fit of the inhibition curves was used, with the log [inhibitor] versus slope of the reaction variables (four parameters) and a symmetric equation. […] To determine IC50 values, two independent repetitions were performed and the average was calculated.

E. coli DNA gyrase = target: T2, E. coli DNA gyrase (Escherichia coli, UniProt P0AES4); test: DNA gyrase supercoiling inhibition assay (high-throughput plate assay); type: biochemical
T2 construct: purchased Inspiralis (Norwich, UK)
Protocol: as §1

S. aureus topoIV = target: T3, S. aureus topoIV (Staphylococcus aureus, UniProt P0C1U9); test: biochemical; conditions: relaxation inhibition; mean of two independent measurements ± SD
T3 construct: purchased Inspiralis (Norwich, UK)
Protocol: as §1

S. aureus DNA gyrase = target: T4, S. aureus DNA gyrase (Staphylococcus aureus, UniProt P20831); test: biochemical; conditions: supercoiling inhibition; mean of two independent measurements ± SD
T4 construct: purchased Inspiralis (Norwich, UK)
Protocol: as §1

E. coli ESBL QA-11.3 = test: MIC, broth microdilution; type: cell-based; conditions: Escherichia coli
Protocol: (§2) For the determination of minimum inhibitory concentrations (MIC), the broth microdilution method was used in 96-well plate format, according to the guidelines of the Clinical and Laboratory Standards Institute and the recommendations of the European Committee on Antimicrobial Susceptibility Testing (EUCAST). The dilutions of the bacterial suspension of the specific bacterial strain, corresponding to the 0.5 McFarland turbidity standard, were prepared with […] Mueller–Hinton broth with TES (Thermo Fisher Scientific) to obtain an end inoculum of 10^5 CFU/mL. The compounds were dissolved in DMSO and mixed with the inoculum. […] The MIC was determined as the lowest concentration of antibiotic that prevented visible bacterial growth. Tetracycline was used as a positive control on each test plate.

P. aeruginosa RDK 184 = test: MIC, broth microdilution; type: cell-based; conditions: Pseudomonas aeruginosa
Protocol: as §2

E. coli (ATCC 25922) = test: MIC, broth microdilution; type: cell-based; conditions: Escherichia coli
Protocol: as §2

E. faecalis RDK 057 = test: MIC, broth microdilution; type: cell-based
Protocol: as §2

VRE = test: MIC, broth microdilution; type: cell-based; conditions: Enterococcus
Protocol: as §2

S. aureus (ATCC 29213) = test: MIC, broth microdilution; type: cell-based; conditions: Staphylococcus aureus, ATCC29213
Protocol: as §2

A. baumannii = test: MIC, broth microdilution; type: cell-based; conditions: Acinetobacter baumannii
Protocol: as §2

E. coli D22 = test: MIC, broth microdilution; type: cell-based; conditions: Escherichia coli
Protocol: as §2

E. coli N43 (CGSC# 5583) = test: MIC, broth microdilution; type: cell-based; conditions: Escherichia coli
Protocol: as §2

K. pneumoniae = test: MIC, broth microdilution; type: cell-based; conditions: Klebsiella pneumoniae
Protocol: as §2

MRSA(QA-12.1) = test: MIC, broth microdilution; type: cell-based, S. aureus; conditions: Staphylococcus aureus
Protocol: as §2

MRSA (QA-11.7) = test: MIC, broth microdilution; type: cell-based, S. aureus; conditions: Staphylococcus aureus
Protocol: as §2

MRSA (QA-11.2) = test: MIC, broth microdilution; type: cell-based, S. aureus; conditions: Staphylococcus aureus
Protocol: as §2

[1] = ESBLQA11.3, 20 h, Table S3, read-out: MIC (μM) E. coli ESBL QA:11.3
[2] = ESBLQA11.3, read-out: MIC E. coli ESBL QA-11.3
[3] = RDK184, 20 h, Table S3, read-out: MIC (μM) P. aeruginosa RDK 184
[4] = RDK184, read-out: MIC P. aeruginosa RDK 184
[5] = ATCC25922, 20 h, Table S3, read-out: MIC (μM) E. coli (ATCC 25922)
[6] = ATCC25922, read-out: MIC E. coli (ATCC 25922)
[7] = Enterococcus faecalis, RDK057; Table S3; read-out: MIC (μM) E. faecalis DRK 057
[8] = Enterococcus faecalis, RDK057; read-out: MIC E. faecalis RDK 057
[9] = Table S3, read-out: MIC (μM) VRE
[10] = Table S3, read-out: MIC (μM) S. aureus (ATCC 29213)
[11] = read-out: MIC S. aureus (ATCC 29213)
[12] = Table S3, read-out: MIC (μM) A. baumannii
[13] = D22, Table S3, lpxC mutation, read-out: MIC (μM) E. coli D22
[14] = D22, lpxC mutation that increases membrane permeability, read-out: MIC E. coli D22
[15] = read-out: MIC E. coli N43 (CGSC# 5583)
[16] = 20 h, Table S3, read-out: MIC (μM) K. pneumoniae
[17] = Table S3, read-out: MIC (μM) MRSA(QA-12.1)
[18] = strain resistant to cefoxitin, gentamicin, kanamycin, rifampicin, streptomycin, sulfamethoxazole, tetracycline, read-out: MIC MRSA(QA-12.1)
[19] = Table S3, read-out: MIC (μM) MRSA (QA-11.7)
[20] = strain resistant to cefoxitin, ciprofloxacin, clindamycin, erythromycin, tetracycline, thiamulin, trimethoprim, read-out: MIC MRSA (QA-11.7)
[21] = Table S3, read-out: MIC (μM) MRSA (QA-11.2)
[22] = ESBLQA11.3, Table S3, read-out: MIC (μM) E. coli ESBL QA:11.3
[23] = ATCC25922, Table S3, read-out: MIC (μM) E. coli (ATCC 25922)
[24] = Table S3, read-out: MIC (μM) K. pneumoniae

T1 sequence (P20083 whole entry): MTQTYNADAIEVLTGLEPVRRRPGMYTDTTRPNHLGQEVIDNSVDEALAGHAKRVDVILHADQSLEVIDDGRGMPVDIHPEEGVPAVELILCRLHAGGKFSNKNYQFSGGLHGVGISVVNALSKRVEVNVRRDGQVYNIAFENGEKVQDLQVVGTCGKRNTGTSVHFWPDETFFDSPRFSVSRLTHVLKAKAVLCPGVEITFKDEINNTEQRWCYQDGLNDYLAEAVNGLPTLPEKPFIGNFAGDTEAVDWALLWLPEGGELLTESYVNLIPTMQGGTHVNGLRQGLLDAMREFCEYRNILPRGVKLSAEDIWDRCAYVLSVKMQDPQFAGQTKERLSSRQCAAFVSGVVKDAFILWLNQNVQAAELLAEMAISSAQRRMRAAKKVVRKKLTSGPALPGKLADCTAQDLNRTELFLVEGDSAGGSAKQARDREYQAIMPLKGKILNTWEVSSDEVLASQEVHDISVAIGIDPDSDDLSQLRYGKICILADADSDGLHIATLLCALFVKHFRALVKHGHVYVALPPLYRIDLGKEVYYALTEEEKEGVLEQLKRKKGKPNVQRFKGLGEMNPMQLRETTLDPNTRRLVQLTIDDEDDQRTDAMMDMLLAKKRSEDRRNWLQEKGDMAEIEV
T1 sequence (P0AFI2 whole entry): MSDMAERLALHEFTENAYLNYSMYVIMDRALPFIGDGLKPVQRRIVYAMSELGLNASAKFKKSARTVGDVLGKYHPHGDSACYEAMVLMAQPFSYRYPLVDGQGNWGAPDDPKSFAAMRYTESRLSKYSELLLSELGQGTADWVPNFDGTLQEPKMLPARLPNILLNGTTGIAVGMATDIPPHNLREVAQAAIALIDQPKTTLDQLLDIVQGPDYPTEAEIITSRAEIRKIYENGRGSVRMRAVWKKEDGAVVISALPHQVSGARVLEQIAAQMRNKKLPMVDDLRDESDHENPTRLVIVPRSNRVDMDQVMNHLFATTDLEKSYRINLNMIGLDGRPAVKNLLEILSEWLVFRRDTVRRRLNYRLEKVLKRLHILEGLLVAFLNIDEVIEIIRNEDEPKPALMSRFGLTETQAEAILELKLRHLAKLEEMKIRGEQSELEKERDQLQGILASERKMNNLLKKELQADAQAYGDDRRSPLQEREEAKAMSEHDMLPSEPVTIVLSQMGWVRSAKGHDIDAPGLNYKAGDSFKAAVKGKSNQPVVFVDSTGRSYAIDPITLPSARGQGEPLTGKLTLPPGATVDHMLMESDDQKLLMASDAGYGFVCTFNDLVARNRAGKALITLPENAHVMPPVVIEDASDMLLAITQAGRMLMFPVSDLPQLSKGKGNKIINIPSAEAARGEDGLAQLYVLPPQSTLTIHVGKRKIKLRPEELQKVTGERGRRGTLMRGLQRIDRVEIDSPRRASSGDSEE
T4 sequence (P20831 whole entry): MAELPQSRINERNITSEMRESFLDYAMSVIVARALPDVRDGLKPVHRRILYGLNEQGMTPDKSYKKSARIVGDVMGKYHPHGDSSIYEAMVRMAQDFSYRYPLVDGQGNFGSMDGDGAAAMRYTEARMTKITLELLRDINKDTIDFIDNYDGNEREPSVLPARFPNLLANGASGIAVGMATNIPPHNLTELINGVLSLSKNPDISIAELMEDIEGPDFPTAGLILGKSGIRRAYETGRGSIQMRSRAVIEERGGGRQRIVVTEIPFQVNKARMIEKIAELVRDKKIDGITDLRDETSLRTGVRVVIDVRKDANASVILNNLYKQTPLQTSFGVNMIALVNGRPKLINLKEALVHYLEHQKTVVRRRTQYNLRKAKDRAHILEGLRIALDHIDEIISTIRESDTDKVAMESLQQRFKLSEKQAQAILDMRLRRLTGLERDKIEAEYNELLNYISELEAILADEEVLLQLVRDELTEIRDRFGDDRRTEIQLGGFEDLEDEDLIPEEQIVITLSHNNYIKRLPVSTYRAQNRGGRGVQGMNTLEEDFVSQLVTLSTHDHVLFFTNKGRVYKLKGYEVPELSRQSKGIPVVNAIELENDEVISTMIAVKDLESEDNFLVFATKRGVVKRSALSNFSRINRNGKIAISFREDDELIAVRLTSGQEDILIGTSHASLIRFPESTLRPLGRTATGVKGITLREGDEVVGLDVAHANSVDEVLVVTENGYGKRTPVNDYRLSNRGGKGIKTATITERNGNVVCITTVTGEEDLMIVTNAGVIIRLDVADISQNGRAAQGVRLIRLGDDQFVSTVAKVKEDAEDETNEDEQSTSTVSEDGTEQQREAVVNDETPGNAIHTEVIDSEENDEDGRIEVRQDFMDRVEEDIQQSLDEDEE
T4 sequence (P0A0K8 whole entry partner): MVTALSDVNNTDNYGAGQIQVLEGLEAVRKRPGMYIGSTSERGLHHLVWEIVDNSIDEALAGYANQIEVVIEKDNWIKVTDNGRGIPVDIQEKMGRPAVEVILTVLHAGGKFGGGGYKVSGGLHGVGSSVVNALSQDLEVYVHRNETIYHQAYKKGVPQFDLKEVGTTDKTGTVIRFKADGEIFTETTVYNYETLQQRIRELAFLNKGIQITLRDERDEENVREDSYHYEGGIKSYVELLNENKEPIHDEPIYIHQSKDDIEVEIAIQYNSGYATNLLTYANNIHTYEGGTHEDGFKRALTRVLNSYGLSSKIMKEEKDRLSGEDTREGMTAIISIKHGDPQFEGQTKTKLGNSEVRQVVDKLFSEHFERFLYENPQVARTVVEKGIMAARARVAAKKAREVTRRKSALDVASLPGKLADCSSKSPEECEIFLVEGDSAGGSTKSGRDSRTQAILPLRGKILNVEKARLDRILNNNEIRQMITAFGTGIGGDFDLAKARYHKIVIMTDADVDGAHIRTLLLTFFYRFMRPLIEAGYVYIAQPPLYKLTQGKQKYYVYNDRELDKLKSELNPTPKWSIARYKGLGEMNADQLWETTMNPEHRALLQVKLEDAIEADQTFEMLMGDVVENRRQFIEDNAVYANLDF
T3 sequence (P0C1U9 whole entry): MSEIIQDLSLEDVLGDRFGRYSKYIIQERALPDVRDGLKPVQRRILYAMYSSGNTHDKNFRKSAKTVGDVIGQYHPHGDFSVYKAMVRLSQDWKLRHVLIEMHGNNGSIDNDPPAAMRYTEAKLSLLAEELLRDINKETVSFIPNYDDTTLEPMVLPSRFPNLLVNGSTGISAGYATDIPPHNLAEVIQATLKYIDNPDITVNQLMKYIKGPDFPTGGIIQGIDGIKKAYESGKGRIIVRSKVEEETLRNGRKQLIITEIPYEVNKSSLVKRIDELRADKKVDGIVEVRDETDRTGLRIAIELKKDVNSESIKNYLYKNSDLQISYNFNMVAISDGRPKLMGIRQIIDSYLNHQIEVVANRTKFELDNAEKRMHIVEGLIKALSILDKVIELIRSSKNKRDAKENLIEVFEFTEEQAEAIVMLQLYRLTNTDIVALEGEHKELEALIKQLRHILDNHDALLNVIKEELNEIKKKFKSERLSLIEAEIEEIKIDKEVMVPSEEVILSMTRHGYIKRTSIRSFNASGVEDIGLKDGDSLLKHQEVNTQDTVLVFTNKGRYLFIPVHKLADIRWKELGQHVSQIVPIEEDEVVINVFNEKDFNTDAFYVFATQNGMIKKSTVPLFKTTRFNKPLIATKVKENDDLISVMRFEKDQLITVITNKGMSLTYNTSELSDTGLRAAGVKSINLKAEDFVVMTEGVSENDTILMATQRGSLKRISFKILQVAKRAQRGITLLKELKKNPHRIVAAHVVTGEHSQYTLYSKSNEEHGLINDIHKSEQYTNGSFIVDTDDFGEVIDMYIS
T3 sequence (P0C1S7 whole entry partner): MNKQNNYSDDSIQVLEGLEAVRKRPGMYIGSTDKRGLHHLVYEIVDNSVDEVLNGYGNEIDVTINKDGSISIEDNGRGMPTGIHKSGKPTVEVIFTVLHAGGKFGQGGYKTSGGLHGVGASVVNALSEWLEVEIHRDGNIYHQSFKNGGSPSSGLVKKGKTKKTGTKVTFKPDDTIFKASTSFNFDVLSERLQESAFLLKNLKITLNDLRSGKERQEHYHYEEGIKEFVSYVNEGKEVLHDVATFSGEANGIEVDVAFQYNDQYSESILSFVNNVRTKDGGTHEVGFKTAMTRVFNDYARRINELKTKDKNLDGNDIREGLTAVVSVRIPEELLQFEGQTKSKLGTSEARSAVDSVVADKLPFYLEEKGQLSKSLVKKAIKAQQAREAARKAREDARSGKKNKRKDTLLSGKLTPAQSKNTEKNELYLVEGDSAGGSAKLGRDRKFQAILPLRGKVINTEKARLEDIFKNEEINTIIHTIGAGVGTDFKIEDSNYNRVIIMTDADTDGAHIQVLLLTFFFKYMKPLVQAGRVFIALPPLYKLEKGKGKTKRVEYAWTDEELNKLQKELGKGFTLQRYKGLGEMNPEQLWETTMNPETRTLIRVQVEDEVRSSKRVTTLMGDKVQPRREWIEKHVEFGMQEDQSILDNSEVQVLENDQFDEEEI

SMILES | IC50 (E. coli topoIV) [nM] | IC50 (E. coli DNA gyrase) [nM] | IC50 (S. aureus topoIV) [nM] | IC50 (S. aureus DNA gyrase) [nM] | MIC (E. coli ESBL QA-11.3; [2]) [µg/mL] | MIC (P. aeruginosa RDK 184; [3]) [µM] | MIC (P. aeruginosa RDK 184; [4]) [µg/mL] | MIC (E. coli (ATCC 25922); [6]) [µg/mL] | MIC (VRE; [9]) [µM] | MIC (VRE; read-out: MIC VRE) [µg/mL] | MIC (S. aureus (ATCC 29213); [10]) [µM] | MIC (S. aureus (ATCC 29213); [11]) [µg/mL] | MIC (A. baumannii; [12]) [µM] | MIC (A. baumannii; read-out: MIC A. baumannii) [µg/mL] | MIC (E. coli D22; [14]) [µg/mL] | MIC (E. coli N43 (CGSC# 5583); read-out: MIC (μM) E. coli N43) [µM] | MIC (E. coli N43 (CGSC# 5583); [15]) [µg/mL] | MIC (K. pneumoniae; read-out: MIC K. pneumoniae) [µg/mL] | MIC (MRSA(QA-12.1); [17]) [µM] | MIC (MRSA(QA-12.1); [18]) [µg/mL] | further results
COc1ccc2nccc(OCC3CCC(NCc4ccc(C)cc4)CC3)c2n1 (stereo not drawn) [Compound 6] | 2890 ± 880 | 1520 ± 361 | > 100000 | 403 ± 20 | > 128 | > 328 | > 128 | > 128 | 5.12 | 2 | 2.56 | 1 | 164 | 64 | 32 | 10.2 | 4 | > 128 | 5.12 | 2 | MIC (E. coli ESBL QA-11.3; [1]): > 328 µM; MIC (E. coli (ATCC 25922); [5]): > 328 µM; MIC (E. faecalis RDK 057; [7]): 20.5 µM; MIC (E. faecalis RDK 057; [8]): 8 µg/mL; MIC (E. coli D22; [13]): 81.9 µM; MIC (K. pneumoniae; [16]): > 328 µM; MIC (MRSA (QA-11.7); [19]): 2.56 µM; MIC (MRSA (QA-11.7); [20]): 1 µg/mL; MIC (MRSA (QA-11.2); [21]): 1.28 µM; MIC (MRSA (QA-11.2); read-out: MIC MRSA (QA-11.2)): 0.5 µg/mL
COc1ccc2nccc(OCC3CCC(NCc4ccc(C)cc4)CO3)c2n1 (stereo not drawn) [Compound 7, 6-(((6-Methoxy-1,5-naphthyridin-4-yl)oxy)methyl)-N-(4-methylbenzyl)tetrahydro-2H-pyran-3-amine] | 1530 ± 43 | 1310 ± 348 | > 100000 | 194 ± 18 | > 128 | > 328 | > 128 | > 128 | 5.12 | 2 | 1.28 | 0.5 | 164 | 64 | 32 | 10.2 | 4 | > 128 | 1.28 | 0.5 | MIC (E. coli ESBL QA-11.3; [1]): > 328 µM; MIC (E. coli (ATCC 25922); [5]): > 328 µM; MIC (E. faecalis RDK 057; Enterococcus faecalis, RDK057, read-out: MIC (μM) E. faecalis DRK 057): 10.2 µM; MIC (E. faecalis RDK 057; [8]): 4 µg/mL; MIC (E. coli D22; [13]): 81.9 µM; MIC (K. pneumoniae; [16]): > 328 µM; MIC (MRSA (QA-11.7); [19]): 2.56 µM; MIC (MRSA (QA-11.7); [20]): 1 µg/mL; MIC (MRSA (QA-11.2); [21]): 0.64 µM; MIC (MRSA (QA-11.2); read-out: MIC MRSA (QA-11.2)): 0.25 µg/mL
COc1ccc2nccc(C(O)CC3CCC(NCc4ccc(C)cc4)CC3)c2n1 (stereo not drawn) [Compound 8, 1-(6-Methoxy-1,5-naphthyridin-4-yl)-2-(4-((4-methylbenzyl)amino)cyclohexyl)ethan-1-ol] | 83 | 1320 ± 460 | 2500 ± 252 | 77 ± 10 | 8 | 328 | 128 | 8 | 0.32 | 0.125 | 0.161 | 0.063 | 5.12 | 2 | 1 | 2.56 | 1 | 16 | 0.161 | 0.063 | MIC (E. coli ESBL QA-11.3; [22]): 20.5 µM; MIC (E. coli (ATCC 25922); [23]): 20.5 µM; MIC (E. faecalis RDK 057; [7]): 0.64 µM; MIC (E. faecalis RDK 057; [8]): 0.25 µg/mL; MIC (E. coli D22; D22, read-out: MIC (μM) E. coli D22): 2.56 µM; MIC (K. pneumoniae; [24]): 41 µM; MIC (MRSA (QA-11.7); [19]): 0.32 µM; MIC (MRSA (QA-11.7); [20]): 0.125 µg/mL; MIC (MRSA (QA-11.2); [21]): 0.082 µM; MIC (MRSA (QA-11.2); read-out: MIC MRSA (QA-11.2)): 0.032 µg/mL
COc1ccc2nccc(CCN3CCC(NCc4ccc(C)cc4)CC3)c2n1 [Compound 5, 1-(2-(6-Methoxy-1,5-naphthyridin-4-yl)ethyl)-N-(4-methylbenzyl)piperidin-4-amine] | 89 ± 19 | 1019 ± 5 | 1230 ± 258 | 145 ± 14 | 4 | > 328 | > 128 | 2 | 0.082 | 0.032 | 0.082 | 0.032 | 2.56 | 1 | 1 | 0.32 | 0.125 | 16 | 0.041 | 0.016 | MIC (E. coli ESBL QA-11.3; [22]): 10.2 µM; MIC (E. coli (ATCC 25922); [23]): 5.12 µM; MIC (E. faecalis RDK 057; Enterococcus faecalis, RDK057, read-out: MIC E. faecalis RDK 057): 0.125 µg/mL; MIC (E. faecalis RDK 057; [7]): 0.32 µM; MIC (E. coli D22; [13]): 2.56 µM; MIC (K. pneumoniae; [24]): 41 µM; MIC (MRSA (QA-11.7); [19]): 0.041 µM; MIC (MRSA (QA-11.7); [20]): 0.016 µg/mL; MIC (MRSA (QA-11.2); [21]): 0.082 µM; MIC (MRSA (QA-11.2); read-out: MIC MRSA (QA-11.2)): 0.032 µg/mL
